One experiment has as its target T1, Adenosine receptor A1 (Homo sapiens, UniProt P30542).
T1 sequence (P30542 whole entry): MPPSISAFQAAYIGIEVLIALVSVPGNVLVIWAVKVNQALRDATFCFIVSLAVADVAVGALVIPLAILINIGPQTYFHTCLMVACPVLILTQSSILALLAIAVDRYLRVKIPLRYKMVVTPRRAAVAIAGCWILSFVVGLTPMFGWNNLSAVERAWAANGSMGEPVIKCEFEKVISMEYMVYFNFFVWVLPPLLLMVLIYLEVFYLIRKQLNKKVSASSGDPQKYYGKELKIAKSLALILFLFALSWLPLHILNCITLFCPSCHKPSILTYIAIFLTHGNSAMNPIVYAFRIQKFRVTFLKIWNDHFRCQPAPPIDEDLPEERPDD
Kind of experiment: Adenosine Receptor Binding Assay. The protocol: (§1) Inhibition binding assays were performed using 0.2 μg of membranes prepared from […] cells infected with BacMam human adenosine A2A receptor or 1.4 μg of membranes […] receptor. Membranes were incubated in 50 mM Tris-HCl (HEK293-hA2A; pH 7.4) or 50 mM Tris-HCl, 100 mM NaCl, 10 mM MgCl2 (CHO-hA1; pH 7.4) in the presence of varying concentrations of test compound and 1 nM [3H]ZM241385 (HEK293-hA2A) or [3H]DPCPX (CHO-hA1) at 25° C. for 1 h. The assay was then terminated by rapid filtration onto GF/B grade Unifilter plates using a TomTec cell harvester, followed by 5×0.5 ml washes with ddH2O. Nonspecific binding was defined in the presence of 1 μM CGS15943 (HEK293-hA2A) or 1 μM DPCPX (CHO-hA1). Bound radioactivity was determined by liquid scintillation counting and inhibition curves were analysed using a four-parameter logistic equation.

The target of another experiment is Adenosine receptor A2a (Homo sapiens, UniProt P29274). Kind of experiment: Adenosine Receptor Binding Assay. The protocol:
as §1

Sequence of Adenosine receptor A2a (P29274 whole entry): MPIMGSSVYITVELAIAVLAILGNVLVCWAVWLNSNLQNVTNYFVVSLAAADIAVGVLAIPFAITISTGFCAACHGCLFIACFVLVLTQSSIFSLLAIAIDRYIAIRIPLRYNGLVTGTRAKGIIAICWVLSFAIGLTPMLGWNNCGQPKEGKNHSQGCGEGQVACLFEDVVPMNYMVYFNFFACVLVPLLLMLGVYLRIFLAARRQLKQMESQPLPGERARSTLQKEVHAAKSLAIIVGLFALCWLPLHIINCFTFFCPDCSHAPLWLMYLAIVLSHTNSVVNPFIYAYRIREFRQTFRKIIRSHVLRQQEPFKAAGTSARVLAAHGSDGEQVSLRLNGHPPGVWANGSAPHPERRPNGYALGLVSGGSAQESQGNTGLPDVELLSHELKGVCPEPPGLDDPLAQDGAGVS

In the case of `Cc1cc(-c2c(-c3ccccc3)nc(N)n3c(=O)n(Cc4ccc(F)cn4)nc23)cc(C)c1O` [US12552799, Example 3-1], the Ki (as a rule, the equilibrium dissociation constant of an inhibitor or competing ligand from its target) at Adenosine receptor A1 is 100 nM; at Adenosine receptor A2a, 0.631 nM.
The like results for `C[C@@H]1CN(c2c(-c3ccccc3)nc(N)n3c(=O)n(C[C@@H]4CCCN4C)nc23)C[C@H](C)O1` [US12552799, Example 1-7] were, in that order, 2000 nM and 158 nM.
The like results for `Cc1cc(-c2c(-c3ccc(F)cc3)nc(N)n3c(=O)n(Cc4ccc(Cl)cn4)nc23)cc2ocnc12` [US12552799, Example 4-2] were, in that order, 63.1 nM and 0.158 nM.
The like results for `C[C@@H]1CN(c2c(-c3ccccc3)nc(N)n3c(=O)n(C[C@H]4CCCO4)nc23)C[C@H](C)O1` [US12552799, Example 1-8] were, in that order, over 2000 nM and 10 nM.
As for `Cc1cc(-c2c(-c3ccccc3)nc(N)n3c(=O)n(Cc4ccc(F)cn4)nc23)cc2c1N=NC2` [US12552799, Example 4-4], the Ki on Adenosine receptor A1 was 25.1 nM; on Adenosine receptor A2a it was 0.251 nM.
The corresponding values for `CCCn1nc2c(N3C[C@@H](C)O[C@@H](C)C3)c(-c3ccccc3)nc(N)n2c1=O` [US12552799, Example 1-4] are over 3160 nM and 63.1 nM.
The like results for `Cc1ocnc1Cn1nc2c(-c3cc(C)c4ncoc4c3)c(-c3ccccc3)nc(N)n2c1=O` [US12552799, Example 4-6] were, in that order, 7.94 nM and 0.079 nM.
The corresponding values for `C[C@@H]1CN(c2c(-c3ccccc3)nc(N)n3c(=O)n(CCCF)nc23)C[C@H](C)O1` [US12552799, Example 1-2] are over 3160 nM and 158 nM.

These data come from BindingDB's records for patent US12552799 (Nxera Pharma, 2026).
